Reference: article PMC10541502 (Science Advances, 2023)
Ends that are not written are not given here.

Tested on: C57BL/6 mice
Conditions: mouse

Sequence	In vivo toxicity, overall finding
MSPSILKHWSRQGGGKKLLGLLLKLKLK [F6P6]	did not induce primary toxic irritation
MSPSILKHWSRQGGGKLKKLLLGLLLKK [F6P1]	did not induce primary toxic irritation
